In patent publication US20140196172A1, “Organelle Targeting Nanocarriers” (Her Majesty the Queen in Right of Canada, as Repre sented …, priority 2011, published 2014):

Assays:
tobacco protoplasts = assay: Incubation of tobacco protoplasts with fluorescently labeled peptides, confocal microscopy; type: cell-based, Nicotiana benthamiana; settings: fluorescein-labelled peptide 20 μM, 1 hour, confocal (Olympus)
Experimental: Nicotiana benthamiana plants are grown for 6-8 weeks and kept in the dark for 24 hrs prior to all experiments. All pipetting is done slowly with wide bore pipette tips to prevent protoplast lysis. Leaves are cut on the underside in many shallow thin slices, with the center vein taken out, and incubated underside down with enzyme digest solution [2% cellulase and 2% macerozyme (Yakult Honsha Co Ltd, Japan) in CPW (cell protoplast washing) solution, pH 5.6 (Frearson E M, Power J B, Cocking E C (1973) Dev Biol 33: 130-137)] in […] Petri dishes for 3-5 hrs at 28° C. After incubation, leaves are gently shaken with forceps to release any remaining protoplasts, and medium is gently filtered through […] sieves and transferred into 50 mL centrifuge tubes. The medium is spun for 5 min at 300 g at 4° C., and a floating band of protoplasts is removed from the top of the suspension, resuspended in W5 wash solution (154 mM NaCl, 125 mM CaCl2.2H2O, 5 mM KCl, 5 mM glucose, 0.5 M mannitol adjusted to pH 5.8 with 0.1 M KOH), and spun for 3 mins at 300 g at 4° C. The pellet is gently layered on 5 mL of 20% maltose in a 15 mL centrifuge tube, and centrifuged 5 mins at 300 g. A floating band in the center of the solution is carefully removed and resuspended with MaMg solution (15 mM MgCl2, 0.1% MES, 0.4 M mannitol, adjusted to pH 5.6 with KOH), and spun for 3 mins at 300 g at 4° C. The protoplast suspension is diluted to 100,000 cells/ml using a hemocytometer.
A stock solution of fluoresceinated mTPs or cTPs (100 μM) prepared with sterile optimum water is added to protoplast suspension at a final concentration of 20 μM. Each suspension is incubated at room temperature for 1 hour in the dark. Following incubation, 25% Trypsin EDTA is added for 5 minutes and the solution is centrifuged for 2 minutes at 120 g. The pellet is resuspended in fresh MaMg media, and 1.5 μL MitoTracker® Orange CM-H2TMRos (M7511, Invitrogen) is added for 15 minutes, followed by centrifugation for 2 minutes at 120 g. Protoplasts are mounted on slides in 1% low melting point agar (2:1 ratio of agar to protoplast suspension) for confocal microscopy (Olympus; both XY cross section and XYZ depth images).
Cells are observed using a confocal microscope (Nikon C1, Nikon Canada Inc. or Olympus FluoView™) to analyse the localization of the fluoresceinated mTPs or cTPs (excitation wavelength 490 nm/emission wavelength 520 nm). Chloroplasts are identified by autofluorescence. The fluorescent dye MitoTracker® Orange CM-H2TMRos (M7511, Invitrogen) is used to stain mitochondria (excitation wavelength 554 nm/emission wavelength 576 nm). Fluorescence emissions are collected in z-confocal planes of […] and analyzed using EZ-C1 Software Version 3.6 (Nikon) or Olympus FluoView™ software version 2.0b (Olympus).

[1] = system: F1112 (bovine colonic cell line); assay: Uptake of labeled peptides by F1112 cells, photometric cell imaging; type: cell-based; settings: for Average concentration of labeled peptide measured in cells, F1112: cells exposed to labeled peptide at 17 μM; for Photometric Cell Imaging (average counts/sec) F1112: 1 hr, background about 1×10^5 counts/sec
Experimental: (§1) Caco-2 and F1112 cells are cultured in Dulbecco's Modified Eagle Medium (DMEM) containing 10% (v/v) fetal bovine serum (FBS) and 50 μg/ml gentamycin at 37° C. in a 95% humidified atmosphere containing 5% CO2. The cells are grown in Falcon™ […] 75 cm^2 cell culture flasks until they reach confluency, then are detached with 0.25% trypsin and 0.02% EDTA and washed with DMEM.
(§2) Preparations used for photometric cell imaging are prepared by adding 1000 cells to a Nunc coverglass chamber (2.5 cm^2). Cells are cultured as described above for 3 to 7 days. The cell monolayers are rinsed three times with epithelial cell saline (pH 7.4).
(§3) Varying concentrations of fluoresceinated mTPs (100 μM) are added to epithelial cell saline to obtain a final working volume of 400 μl. Final concentrations added to the Caco-2, F1112 and MG cell monolayers as described above are 17 μM, 9 μM and 4 μM. Cells are incubated with the peptides for 1 hr in the dark at 37° C. in a 95% humidified atmosphere containing 5% CO2. At the end of the incubation period, the cell monolayer is rinsed three times with epithelial cell saline and 500 μl of epithelial cell saline is added.
(§4) Uptake of labeled peptides by cells is quantified using a photometric detector/cell-imaging system (PTI). An excitation scan is run to determine if uptake has occurred as indicated by peaks at the appropriate wavelengths and if the amount changes in a dose-dependent manner compared to unlabeled cells. A time-based scan is then performed at the optimal excitation and emission wavelength to quantify total uptake, using about 20 cells/view/replicate.

[2] = system: Caco-2 (human colonic epithelial cell line); assay: Uptake of labeled peptides by Caco-2 cells, photometric cell imaging; type: cell-based; settings: for Average concentration of labeled peptide measured in cells, Caco-2: cells exposed to labeled peptide at 17 μM; for Photometric Cell Imaging (average counts/sec) Caco-2: 1 hr, background about 1×10^5 counts/sec
Experimental: as §1, §2, §3, §4

MAAWMRSLFSPLKKLWIRMH (Zea mays) [mTP2]
Organelle localization (tobacco protoplasts): localize to mitochondria
Average concentration of labeled peptide measured in cells, F1112 [1]: 70 nm
Photometric Cell Imaging (average counts/sec) F1112 ([1]; labeled peptide 4 μM): 450000 counts/sec
Photometric Cell Imaging (average counts/sec) F1112 ([1]; labeled peptide 9 μM): 1800000 counts/sec
Photometric Cell Imaging (average counts/sec) F1112 ([1]; labeled peptide 17 μM): 1700000 counts/sec
Average concentration of labeled peptide measured in cells, Caco-2 [2]: 20 nm
Photometric Cell Imaging (average counts/sec) Caco-2 ([2]; labeled peptide 4 μM): 340000 counts/sec
Photometric Cell Imaging (average counts/sec) Caco-2 ([2]; labeled peptide 9 μM): 420000 counts/sec
Photometric Cell Imaging (average counts/sec) Caco-2 ([2]; labeled peptide 17 μM): 490000 counts/sec

MSSPPPLFTSCLPASSPSIRRDSTSGSVTSPLR (listed as Arabidopsis thaliana) [cTP5]
Organelle localization (tobacco protoplasts): localize to chloroplasts

MWWRRSRTNSLRYT (listed as Arabidopsis thaliana) [mTP4]
Average concentration of labeled peptide measured in cells, F1112 [1]: 144 nm
Photometric Cell Imaging (average counts/sec) F1112 ([1]; labeled peptide 4 μM): 250000 counts/sec
Photometric Cell Imaging (average counts/sec) F1112 ([1]; labeled peptide 9 μM): 300000 counts/sec
Photometric Cell Imaging (average counts/sec) F1112 ([1]; labeled peptide 17 μM): 3500000 counts/sec
Average concentration of labeled peptide measured in cells, Caco-2 [2]: 60 nm
Photometric Cell Imaging (average counts/sec) Caco-2 ([2]; labeled peptide 4 μM): 300000 counts/sec
Photometric Cell Imaging (average counts/sec) Caco-2 ([2]; labeled peptide 9 μM): 1200000 counts/sec
Photometric Cell Imaging (average counts/sec) Caco-2 ([2]; labeled peptide 17 μM): 1600000 counts/sec

MQTLTASSSVSSIQRHRPHPAGRRSSSVTFS (listed as Triticum aestivum) [cTP2]
Organelle localization (tobacco protoplasts): localize to chloroplasts

MLFRLRRSVRLRGLLA (listed as Arabidopsis thaliana) [mTP5]
Average concentration of labeled peptide measured in cells, F1112 [1]: 60 nm
Photometric Cell Imaging (average counts/sec) F1112 ([1]; labeled peptide 4 μM): 440000 counts/sec
Photometric Cell Imaging (average counts/sec) F1112 ([1]; labeled peptide 9 μM): 2000000 counts/sec
Photometric Cell Imaging (average counts/sec) F1112 ([1]; labeled peptide 17 μM): 1600000 counts/sec
Average concentration of labeled peptide measured in cells, Caco-2 [2]: 60 nm
Photometric Cell Imaging (average counts/sec) Caco-2 ([2]; labeled peptide 4 μM): 280000 counts/sec
Photometric Cell Imaging (average counts/sec) Caco-2 ([2]; labeled peptide 9 μM): 650000 counts/sec
Photometric Cell Imaging (average counts/sec) Caco-2 ([2]; labeled peptide 17 μM): 1600000 counts/sec

MFSYLPRYPLRAASARALVRATRPSYRSALLRYQ (listed as Triticum aestivum) [mTP1]
Average concentration of labeled peptide measured in cells, F1112 [1]: 49 nm
Photometric Cell Imaging (average counts/sec) F1112 ([1]; labeled peptide 4 μM): 330000 counts/sec
Photometric Cell Imaging (average counts/sec) F1112 ([1]; labeled peptide 9 μM): 560000 counts/sec
Photometric Cell Imaging (average counts/sec) F1112 ([1]; labeled peptide 17 μM): 1200000 counts/sec
Average concentration of labeled peptide measured in cells, Caco-2 [2]: 70 nm
Photometric Cell Imaging (average counts/sec) Caco-2 ([2]; labeled peptide 4 μM): 200000 counts/sec
Photometric Cell Imaging (average counts/sec) Caco-2 ([2]; labeled peptide 9 μM): 1200000 counts/sec
Photometric Cell Imaging (average counts/sec) Caco-2 ([2]; labeled peptide 17 μM): 1600000 counts/sec

MKLLWRLILSRKW (listed as Arabidopsis thaliana) [mTP3]
Organelle localization (tobacco protoplasts): localize to mitochondria
Average concentration of labeled peptide measured in cells, F1112 [1]: 53 nm
Photometric Cell Imaging (average counts/sec) F1112 ([1]; labeled peptide 4 μM): 350000 counts/sec
Photometric Cell Imaging (average counts/sec) F1112 ([1]; labeled peptide 9 μM): 1100000 counts/sec
Photometric Cell Imaging (average counts/sec) F1112 ([1]; labeled peptide 17 μM): 1300000 counts/sec
Average concentration of labeled peptide measured in cells, Caco-2 [2]: 60 nm
Photometric Cell Imaging (average counts/sec) Caco-2 ([2]; labeled peptide 4 μM): 460000 counts/sec
Photometric Cell Imaging (average counts/sec) Caco-2 ([2]; labeled peptide 9 μM): 1200000 counts/sec
Photometric Cell Imaging (average counts/sec) Caco-2 ([2]; labeled peptide 17 μM): 1600000 counts/sec

MGGCVSTPKSCVGAKLR (listed as Arabidopsis thaliana) [cTP1]
Organelle localization (tobacco protoplasts): localize to chloroplasts

MAALIPAIASLPRAQVEKPHPMPVSTRPGLVS (listed as Triticum aestivum) [cTP4]
Organelle localization (tobacco protoplasts): localize to chloroplasts
